{"source": "paper PMC6151961", "about": "(Journal of Enzyme Inhibition and Medicinal Chemistry, 2018)", "target": "CA IX (Homo sapiens, UniProt Q16790)", "assay": "biochemical", "details": "for Ki: read-out: pKi (exp.) (converted)", "key": {"[1]": {"details": "experimental value used for the QSPR model, library compounds (IDs A…, B…), equals log10 of Ki in nM"}, "[2]": {"details": "library compounds with IDs A… and B…, from observed Ki (nM)"}, "[3]": {"details": "experimental value from the library Ki (IDs A…, B…), values equal log10 of Ki in nM"}}, "note": "Read-outs that look alike come from different tables or passages of the source."}
{"smiles": "CC(C)(F)CNS(=O)(=O)c1ccc(N)cc1", "note": "[A1490]", "values": [{"measurement": "log10 of Ki in nM", "setting": "[1]", "result": 1.919}]}
{"smiles": "COc1ccc2c(c1)/C(=N\\NC(=O)c1cnn(-c3ccc(S(N)(=O)=O)cc3)c1-c1ccccc1)C(=O)N2", "note": "[B0041]", "values": [{"measurement": "log10 of Ki in nM", "setting": "[2]", "result": 0.519}]}
{"smiles": "COc1cc(OC)c(/C=C(\\C#N)C(=O)Nc2ccc(S(N)(=O)=O)cc2)c(OC)c1", "note": "[A0495]", "values": [{"measurement": "log10 of Ki in nM", "setting": "[3]", "result": 0.892}]}
{"smiles": "Nc1c(Cl)cc(S(=O)(=O)Nc2nnc(S(N)(=O)=O)s2)cc1Br", "note": "[A0922]", "values": [{"measurement": "log10 of Ki in nM", "result": 1.362}]}
{"smiles": "O=S1(=O)C=Cc2cc(-n3nncc3-c3cccc(C(F)(F)F)c3)ccc2O1", "note": "[A0646]", "values": [{"measurement": "log10 of Ki in nM", "setting": "[2]", "result": 0.982}]}
{"smiles": "NS(=O)(=O)c1ccc(-n2cc(-c3ccc(Br)cc3)c3c2ncn2nc4c5ccccc5nc-4nc32)cc1", "note": "[B0025]", "values": [{"measurement": "log10 of Ki in nM", "setting": "[1]", "result": 0.431}]}
{"smiles": "O=S1(=O)C=Cc2cc(-c3nnnn3-c3cccc4ccccc34)ccc2O1", "note": "[A0400]", "values": [{"measurement": "log10 of Ki in nM", "setting": "[3]", "result": 0.813}]}
{"smiles": "Cc1ccc(-c2nn(-c3ccc(S(N)(=O)=O)cc3)cc2-c2nc3ccccc3[nH]2)cc1", "note": "[A1267]", "values": [{"measurement": "log10 of Ki in nM", "setting": "[3]", "result": 1.693}]}
{"smiles": "NS(=O)(=O)c1nnc(NS(=O)(=O)c2ccc(NC(=O)CCC(=O)O)cc2)s1", "note": "[A0151]", "values": [{"measurement": "log10 of Ki in nM", "setting": "[3]", "result": 0.477}]}
{"smiles": "NS(=O)(=O)c1cccc(-c2cn([C@@H]3O[C@H](CO)[C@@H](O)[C@H](O)[C@H]3O)nn2)c1", "note": "[A1463]", "values": [{"measurement": "log10 of Ki in nM", "setting": "[1]", "result": 1.893}]}
{"smiles": "Nc1nc(N)c2nc(CNCCc3ccc(S(=O)(=O)O)cc3)cnc2n1", "note": "[A2175]", "values": [{"measurement": "Ki", "setting": "[3]", "result": 1000, "unit": "nM"}]}
{"smiles": "NS(=O)(=O)c1ccc(-n2cc(-c3ccc(Br)cc3)c3c2N=CN2NC(=O)CN=C32)cc1", "note": "[A0710]", "values": [{"measurement": "log10 of Ki in nM", "setting": "[2]", "result": 1.068}]}
{"smiles": "Nc1c(Br)cc(S(N)(=O)=O)cc1I", "note": "[A1512]", "values": [{"measurement": "log10 of Ki in nM", "setting": "[1]", "result": 1.934}]}
{"smiles": "NS(=O)(=O)c1ccc(CNC(=O)CCCNC(=O)NCc2ccccc2)cc1", "note": "[A2003]", "values": [{"measurement": "log10 of Ki in nM", "setting": "[3]", "result": 2.660}]}
{"smiles": "CC(C)CCC[C@@H](C)[C@H]1CC[C@@H]2[C@@H]1CC[C@H]1[C@H]2CC=C2C[C@@H](OS(N)(=O)=O)CC[C@@]21C", "note": "[A2177]", "values": [{"measurement": "Ki", "setting": "[2]", "result": 1000, "unit": "nM"}]}
{"smiles": "Nc1nc(N)c2nc(CNCCc3ccc(S(N)(=O)=O)cc3)cnc2n1", "note": "[A0285]", "values": [{"measurement": "log10 of Ki in nM", "setting": "[3]", "result": 0.672}]}
{"smiles": "Nc1c(C(=O)N/N=C2\\C(=O)N(Cc3ccccc3)c3ccccc32)cnn1-c1ccc(S(N)(=O)=O)cc1", "note": "[A0861]", "values": [{"measurement": "log10 of Ki in nM", "result": 1.301}]}
{"smiles": "O=S1(=O)C=Cc2cc(-n3cnnn3)ccc2O1", "note": "[A1395]", "values": [{"measurement": "log10 of Ki in nM", "setting": "[1]", "result": 1.836}]}
{"smiles": "COc1ccc(NC(=S)Nc2c(C#N)c(-c3ccc(Br)cc3)cn2-c2ccc(S(N)(=O)=O)cc2)cc1", "note": "[A1714]", "values": [{"measurement": "log10 of Ki in nM", "setting": "[2]", "result": 2.149}]}
{"smiles": "NS(=O)(=O)c1ccc(NC(=S)N[C@@H]2O[C@H](CO)[C@H](O)[C@H](O)[C@H]2O)cc1", "note": "[A0430]", "values": [{"measurement": "log10 of Ki in nM", "setting": "[3]", "result": 0.845}]}
{"smiles": "CCOc1nc(NCCc2ccc(S(N)(=O)=O)cc2)nc(OCC)n1", "note": "[A0719]", "values": [{"measurement": "log10 of Ki in nM", "result": 1.079}]}
{"smiles": "O=S1(=O)C=Cc2cc(-n3cc(-c4cccc(F)c4)nn3)ccc2O1", "note": "[A0598]", "values": [{"measurement": "log10 of Ki in nM", "setting": "[2]", "result": 0.954}]}
{"smiles": "COc1ccc2c(=O)n(-c3ccc(S(N)(=O)=O)cc3)c(S)nc2c1", "note": "[B0440]", "values": [{"measurement": "log10 of Ki in nM", "result": 1.653}]}
{"smiles": "NS(=O)(=O)c1ccc(CCNC(=S)Nc2ccc(C(=O)O)cc2)cc1", "note": "[A0666]", "values": [{"measurement": "log10 of Ki in nM", "setting": "[1]", "result": 1.000}]}
{"smiles": "NS(=O)(=O)c1ccc(-n2cc(-c3ccc(Br)cc3)c3c2ncn2nnnc32)cc1", "note": "[B0028]", "values": [{"measurement": "log10 of Ki in nM", "setting": "[2]", "result": 0.447}]}
{"smiles": "CCCN(CCC)S(=O)(=O)c1ccc(C(=O)N[C@@H](CCC(=O)O)C(N)=O)cc1", "note": "[A0921]", "values": [{"measurement": "log10 of Ki in nM", "setting": "[3]", "result": 1.362}]}
{"smiles": "NS(=O)(=O)c1ccc(C(=O)NCCc2ccc(O)c(O)c2)cc1", "note": "[A0813]", "values": [{"measurement": "log10 of Ki in nM", "setting": "[3]", "result": 1.230}]}
{"smiles": "COc1cccc(C(=O)CN2C(=O)C=C(C)OS2(=O)=O)c1", "note": "[A1737]", "values": [{"measurement": "log10 of Ki in nM", "setting": "[3]", "result": 2.207}]}
{"smiles": "CC(=O)OC[C@H]1O[C@@H](n2cc(-c3ccc(S(N)(=O)=O)cc3)nn2)[C@H](OC(C)=O)[C@@H](OC(C)=O)[C@@H]1OC(C)=O", "note": "[A1660]", "values": [{"measurement": "log10 of Ki in nM", "result": 2.079}]}
{"smiles": "CCCN(CCC)S(=O)(=O)c1ccc(C(=O)NCC)cc1", "note": "[A1724]", "values": [{"measurement": "log10 of Ki in nM", "setting": "[2]", "result": 2.179}]}
{"smiles": "CC(=O)OC[C@H]1O[C@@H]([S+]([O-])Cc2cn(-c3ccc(S(N)(=O)=O)cc3)nn2)[C@H](OC(C)=O)[C@@H](OC(C)=O)[C@@H]1OC(C)=O", "note": "(stereo partly shown) [B0212]", "values": [{"measurement": "log10 of Ki in nM", "result": 0.996}]}
{"smiles": "NS(=O)(=O)c1ccc(CNS(=O)(=O)c2ccc(NC(=O)c3c(F)c(F)cc(F)c3F)cc2)cc1", "note": "[A0340]", "values": [{"measurement": "log10 of Ki in nM", "setting": "[3]", "result": 0.740}]}
{"smiles": "COc1ccc2c(c1)/C(=N/c1ccc(C(=O)Nc3ccc(S(N)(=O)=O)cc3)cc1)C(=O)N2", "note": "[A1756, reference compound]", "values": [{"measurement": "log10 of Ki in nM", "setting": "[3]", "result": 2.243}]}
{"smiles": "Cc1cccc(Nc2nc(Cl)nc(Nc3ccc(S(N)(=O)=O)cc3)n2)c1", "note": "[A0317]", "values": [{"measurement": "log10 of Ki in nM", "setting": "[1]", "result": 0.708}]}
